Assay results published in patent US20200056220A1, “GENERATION OF DATA FOR USE WITH ANTIMICROBIALS” (GeneFluidics, Inc., priority 2018, published 2020).
Read-outs that look alike come from different tables or passages of the source.

Tested on: E. coli
Conditions: for average current signal of the four sensors, base susceptibility test: 0 minutes susceptibility culture time, sample diluted to 5×10^5 CFU/mL, −250 mV; for average current signal of the four sensors, base susceptibility test / current of the 60 minute test sample: 0.4 μg antibiotic in 100 μL Mueller-Hinton broth
Description: In an antimicrobial susceptibility testing phase, a local antibiogram can be used to identify antibiotics for treating the pathogen identified in Example 1. […] Susceptibility cultures can be started. […] A second susceptibility culture including imipenem can be generated by diluting a portion of the raw sample to 5×10^5 CFU/mL and distributing the result into a vial with a 0.4 μg of a lyophilized version of the imipenem and 100 μL of culture media (Mueller-Hinton broth).
The imipenem susceptibility test sample can be used to generate an imipenem test sample shortly after the imipenem susceptibility culture was started. The Proteus automated system can begin to prepare a test sample from the imipenem susceptibility test sample by transferring 30 μL of the imipenem susceptibility test sample to a microcentrifuge vial in the machine. Then, the Proteus automated system can add 12 μL of 1M NaOH to the 30 μL sample. This sample can be incubated at room temperature for 2 minutes. The Proteus system can then add 8 μL of 1M HCl. Ten microliters of the result can be placed on each of 4 sensors of the 16 available on the GeneFluidics, Inc. 16X EC chip. This chip can be incubated in the Proteus machine for 11 minutes at 43° C. After completion of this incubation, the chip can be washed and dried by Proteus. Ten microliters of 0.5 U/mL anti-fluorescein horseradish peroxidase (HRP) Fab fragments (Roche; diluted in 1.0% casein in 1 M phosphate-buffered saline, pH 7.4) can be injected into the sensor chambers and incubated for 2 minutes at 25° C. The final reagent addition can be 40 μL of 3,3′,5,5′-tetramethylbenzidine (TMB)-H2O2 solution (K-Blue Low Activity TMB Substrate; Neogen, Lexington Ky.) and incubated for 30 seconds to provide the imipenem test sample.
Then, the Proteus automated system can add 12 μL of 1M NaOH to the 30 μL sample. This sample can be incubated at room temperature for 2 minutes. The Proteus system can then add 8 μL of 1M HCl. Ten microliters of the result can be placed on each of 4 sensors of the 16 available on the GeneFluidics, Inc. 16X EC chip. This chip can be incubated in the Proteus machine for 11 minutes at 43° C. After completion of this incubation, the chip can be washed and dried by Proteus. Ten microliters of 0.5 U/mL anti-fluorescein horseradish peroxidase (HRP) Fab fragments (Roche; diluted in 1.0% casein in 1 M phosphate-buffered saline, pH 7.4) can be injected into the sensor chambers and incubated for 2 minutes at 25° C.
The test samples were tested for concentration using a test that served as the base susceptibility test or the zero susceptibility culture time test. For instance, a Helios potentiostat from GeneFluidics, Inc. was connected to the electrodes of the sensor chips and a potential of −250 mV was applied across the electrodes for one minute. During this time, the current generated by the electrochemical reaction was measured by the potentiostat. The average current measured in the final 10 seconds of the potentiostat reading constituted the final result of the assay.
The process that was used to prepare the test samples for the base susceptibility tests was to be used to generate test samples from each of the susceptibility cultures at 60 minutes, and 90 minutes. Each of the test samples were tested as described above.

[1] = 60 minutes susceptibility culture time

SMILES: O=C(O)c1cn(C2CC2)c2cc(N3CCNCC3)c(F)cc2c1=O [ciprofloxacin]
- average current signal of the four sensors, base susceptibility test: 30 nA
- reported result (resistant / susceptible to the concentration of antimicrobial in the culture) (0.4 μg antibiotic in 100 μL culture media, final report when culture was stopped): susceptible
- increase over the current level from base susceptibility test [1]: 0%
- current of the 60 minute test sample [1]: 30 nA
- increase over the current level from base susceptibility test (90 minutes susceptibility culture time): 0%

SMILES: C[C@@H](O)[C@H]1C(=O)N2C(C(=O)O)=C(SCCN=CN)C[C@H]12 [imipenem]
- average current signal of the four sensors, base susceptibility test: 30 nA
- increase over the current level from base susceptibility test [1]: 500%
- current of the 60 minute test sample [1]: 180 nA
